Target: Metabotropic glutamate receptor 2 (Rattus norvegicus) (UniProt P31421)
Experiment: Compound was evaluated for the inhibitory activity against cloned Metabotropic glutamate receptor 2

Sequence of Metabotropic glutamate receptor 2 (Rattus norvegicus) (P31421 whole entry, looked up): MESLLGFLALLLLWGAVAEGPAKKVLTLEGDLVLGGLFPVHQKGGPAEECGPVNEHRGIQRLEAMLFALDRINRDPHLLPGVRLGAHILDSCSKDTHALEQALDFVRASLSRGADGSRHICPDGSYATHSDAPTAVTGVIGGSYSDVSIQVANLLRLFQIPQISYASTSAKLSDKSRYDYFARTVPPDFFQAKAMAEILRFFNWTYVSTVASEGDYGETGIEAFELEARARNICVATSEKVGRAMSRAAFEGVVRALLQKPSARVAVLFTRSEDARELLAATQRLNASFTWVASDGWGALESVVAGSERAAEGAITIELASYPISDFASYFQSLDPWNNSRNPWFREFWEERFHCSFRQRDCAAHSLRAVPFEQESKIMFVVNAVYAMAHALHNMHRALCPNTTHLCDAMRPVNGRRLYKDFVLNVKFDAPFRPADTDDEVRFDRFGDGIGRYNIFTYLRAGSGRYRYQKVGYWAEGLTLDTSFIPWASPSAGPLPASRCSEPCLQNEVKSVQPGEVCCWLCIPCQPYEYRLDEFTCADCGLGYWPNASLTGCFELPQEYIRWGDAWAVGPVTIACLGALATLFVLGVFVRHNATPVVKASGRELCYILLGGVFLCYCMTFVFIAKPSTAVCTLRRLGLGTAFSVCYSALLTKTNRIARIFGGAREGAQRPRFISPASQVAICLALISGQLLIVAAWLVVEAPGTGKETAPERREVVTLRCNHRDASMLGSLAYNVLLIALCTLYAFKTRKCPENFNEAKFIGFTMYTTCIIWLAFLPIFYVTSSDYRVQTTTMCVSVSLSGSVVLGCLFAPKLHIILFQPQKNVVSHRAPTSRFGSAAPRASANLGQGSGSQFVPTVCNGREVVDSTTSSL

Compound | EC50 [µM]
Cc1o[nH]c(=O)c1CC[C@H](N)C(=O)O [2-Amino-4-(3-hydroxy-5-methyl-isoxazol-4-yl)-butyric acid(S-homo-AMPA)] | > 1000
Cc1o[nH]c(=O)c1CC[C@@H](N)C(=O)O [(R)-2-Amino-4-(3-hydroxy-5-methyl-isoxazol-4-yl)-butyric acid] | > 1000

Reference: BindingDB's records for doi:10.1021/jm020122x (The Royal Danish School of Pharmacy, 2002)
